Data reported in patent US20100010214A1, “LYOPHILIZED PREPARATION OF 1-METHYLCARBAPENEM” (DAIICHI SANKYO COMPANY, LIMITED, priority 2006, published 2010).

Experiment: Solubility of compound (I) in water at predetermined pH
Assay type: physicochemical
Conditions: water for injection, ice-cold, pH adjusted with HCl/NaOH; solubility increased with decrease in pH
Description: Method for Measuring Solubility of Compound (I):
Compound (I) (in an amount so that concentration of compound (I) in the aqueous solution becomes 300 mg/g) is weighed in a beaker. 15 mL of water for injection cooled to 5° C. is added, and the solution is stirred using a stirrer under ice-cold conditions for 30 minutes. While stirring, adjustment to the predetermined pH is conducted by dropwise addition of 1N hydrochloric acid or 1N sodium hydroxide aqueous solution, and the pH is maintained. After stirring is completed, a filtration filter (for example, Ekicrodisc 0.45 μm HT-Tuffryn, Gelman Science Japan, Ltd.) is used for filtration, and the amount of compound (I) in the filtrate is measured by the quantitative HPLC method which is similar to Test Example 1 described later, and thus solubility of compound (I) is obtained.

Q: For `C[C@@H](O)[C@H]1C(=O)N2C(C(=O)O)=C(S[C@H]3C[C@@H](C(=O)N4CC[C@H](NC(=O)CNC(=N)N)C4)N(C)C3)[C@H](C)[C@H]12` [Compound (I), (1R,5S,6S)-6-[(1R)-1-hydroxyethyl]-1-methyl-2-[(2S,4S)-2-[(3S)-3-(2-guanidinoacetylamino)pyrrolidin-1-ylcarbonyl]-1-methylpyrrolidin-4-ylthio]-1-carbapen-2-em-3-carboxylic acid], which Solubility in water is on record?
A: Its Solubility in water is “solubility sufficient for the production of the preparation at pH 7 or lower”.
